Experimental findings from paper PMC5743200 (Journal of medicinal chemistry, 2017) are described below.

“Also recorded” adds a separate entry of the source. A value given as a limit tells only on which side of the number the result lay.

One assay has as its target HK853 (Thermotoga maritima, UniProt Q9WZV7). Kind of assay: Inhibition of HK853 activity, BODIPY-ATPγS competition, in-gel fluorescence. It is filed as biochemical. The following applies: for IC50 values (μM) (95% confidence interval), n = 2: HK853 inhibitory activity, value (95% confidence interval).
For a further assay, the target named is HSP90α (Homo sapiens, UniProt P07900). Kind of assay: HSP90 inhibition assay, fluorescence polarization Hsp90α kit. Type of assay: binding. On the technique in general: Fluorescence polarisation rises when a labelled molecule tumbles more slowly, as on binding a larger partner.
Another assay concerns WT HK853. Kind of assay: Thermal shift assay. The following applies: WT HK853 alone Tm = 70 °C; inhibitor 1 mM.
For a further assay, the system named is HK853 D411N. Kind of assay: Thermal shift assay. The following applies: D411N alone Tm 67 °C; inhibitor 1 mM; no significant change.

Regarding `O=c1[nH]cnc2c1ncn2[C@@H]1O[C@H](CO)[C@@H](O)[C@H]1O` [Inosine, reference compound], at HK853, the “IC50 values (μM) (95% confidence interval), n = 2” value was “No Inhibition”.

`c1ccc(CCNc2ncnc3[nH]cnc23)cc1` [Compound 3, 6-N-phenylethyladenine]: at HSP90α, the IC50 – broadly, the concentration at which inhibition is half-maximal – was ≤ 1250 µM.

For the compound `Nc1ncnc2c1ncn2[C@@H]1O[C@H](COP(=O)(O)OP(=O)(O)O)[C@@H](O)[C@H]1O` [Compound 6, ADP, reference compound], the “Tm of WT HK853 in the presence of compound” value with WT HK853 was determined as 80 °C. The “change in the Tm value of HK853 D411N” value in the assay with HK853 D411N is ≤ 2 °C.

For the compound `OC[C@H]1O[C@@H](n2cnc3c(NCCc4ccccc4)ncnc32)[C@H](O)[C@@H]1O` [Compound 10, 6-N-phenylethyladenosine], the “HK853 inhibition, result in words” value on HK853 was “negligible activity”. Further, on HK853 (HK853, riboside 10 versus lead 3), the fold decreased potency was > 20 fold.

In the case of `CC1CC(Nc2ncnc3nc[nH]c23)CC(C)(C)C1` (stereo not drawn) [Compound 4, 6-N,N-(3,3,5-trimethylcyclohexyl) adenine], at HSP90α, the 50% inhibitory concentration (IC50) is ≤ 1250 µM.

With `CCCN(CCC)c1[nH]cnc2ncnc1-2` [Compound 1, 6-N,N-dipropyl adenine], in the assay on HK853 D411N, the “change in the Tm value of HK853 D411N” value was ≤ 2 °C.

Take `Nc1nc(N)c2ncn([C@@H]3O[C@H](CO)[C@@H](O)[C@H]3O)c2n1` [Compound 14, aminoadenosine]: on HK853, the “HK853 inhibition, result in words” value was “negligible activity”.

`Nc1nc2[nH]cnc2c(=O)[nH]1` [Guanine, reference compound]: at HK853, the “HK853 inhibition, result in words” value is listed as “neither guanine or guanosine inhibited HK853”.

Take `Cn1cnc2ncnc(N)c21` [Compound 26, 7-N-methyladenine]: at HK853, the “HK853 inhibition, result in words” value is reported as “failed to show any activity” and the “IC50 values (μM) (95% confidence interval), n = 2” value is reported as “No Inhibition”.

In the case of `Nc1nc(N)c2nc[nH]c2n1` [Compound 13, 2-aminoadenine], on HK853, the “HK853 inhibition, result in words” value is listed as “negligible activity”.

Consider `Nc1nc2ncnc-2c[nH]1` [Compound 21, 2-aminopurine], for which the “HK853 inhibition, result in words” value on HK853 is reported as “low affinity; also recorded: negligible activity”.

On to `OC[C@H]1O[C@@H](n2cnc3c(Nc4ccccc4)ncnc32)[C@H](O)[C@@H]1O` [Compound 23, 6-anilinopurine ribose], for which, on HK853, the “HK853 inhibition, result in words” value is “failed to inhibit” and the “IC50 values (μM) (95% confidence interval), n = 2” value is “No Inhibition”.

For the compound `Cn1cnc2nc(Cl)nc(N)c21` [Compound 28, 2-chloro,7-N-methyladenine], on HK853, the “HK853 inhibition, result in words” value was “inactive” and the “IC50 values (μM) (95% confidence interval), n = 2” value is “No Inhibition”.

For the compound `Nc1ncnc2[nH]nnc12` [Compound 30, 8-azadenine], at HK853, the “HK853 inhibition, result in words” value is recorded as “minimal activity”.

Turning to `Nc1nc2c(ncn2[C@@H]2O[C@H](CO)[C@@H](O)[C@H]2O)c(=O)[nH]1` [Guanosine, reference compound], at HK853, the “HK853 inhibition, result in words” value is given as “neither guanine or guanosine inhibited HK853” and the “IC50 values (μM) (95% confidence interval), n = 2” value is “No Inhibition”.

For `c1ccc(Nc2ncnc3[nH]cnc23)cc1` [Compound 22, 6-anilinopurine], at HK853 (HK853), the “fold superior potency compared to 3” value is given as ~20 fold and the “fold superior potency compared to 9” value is on record as ~60 fold.

Take `Nc1nc(Cl)c2ncn([C@@H]3O[C@H](CO)[C@@H](O)[C@H]3O)c2n1` [Compound 20, 2-amino,6-chloropurine ribose]: at HK853, the “HK853 inhibition, result in words” value is listed as “negligible activity”.
